Reference: ChEMBL document CHEMBL5465560, “Selectivity Literature for EUbOPEN Chemogenomic Library” (2024)

Key:
[1] = target: Tyrosine-protein kinase receptor UFO (Homo sapiens) (UniProt P30530); conditions: at 10 µM
[2] = target: Serine/threonine-protein kinase RIO2 (Homo sapiens) (UniProt Q9BVS4); experiment: Selectivity interaction (KinomeScan (DiscoverX)) EUB0001550a RIOK2; conditions: at 1 µM
[3] = target: T1, Tyrosine-protein kinase ZAP-70 (Homo sapiens) (UniProt P43403); experiment: Selectivity interaction (Upstate Kinase Profiler service (Millipore)) EUB0000056c ZAP70; conditions: at 1 µM
T1 sequence (whole entry): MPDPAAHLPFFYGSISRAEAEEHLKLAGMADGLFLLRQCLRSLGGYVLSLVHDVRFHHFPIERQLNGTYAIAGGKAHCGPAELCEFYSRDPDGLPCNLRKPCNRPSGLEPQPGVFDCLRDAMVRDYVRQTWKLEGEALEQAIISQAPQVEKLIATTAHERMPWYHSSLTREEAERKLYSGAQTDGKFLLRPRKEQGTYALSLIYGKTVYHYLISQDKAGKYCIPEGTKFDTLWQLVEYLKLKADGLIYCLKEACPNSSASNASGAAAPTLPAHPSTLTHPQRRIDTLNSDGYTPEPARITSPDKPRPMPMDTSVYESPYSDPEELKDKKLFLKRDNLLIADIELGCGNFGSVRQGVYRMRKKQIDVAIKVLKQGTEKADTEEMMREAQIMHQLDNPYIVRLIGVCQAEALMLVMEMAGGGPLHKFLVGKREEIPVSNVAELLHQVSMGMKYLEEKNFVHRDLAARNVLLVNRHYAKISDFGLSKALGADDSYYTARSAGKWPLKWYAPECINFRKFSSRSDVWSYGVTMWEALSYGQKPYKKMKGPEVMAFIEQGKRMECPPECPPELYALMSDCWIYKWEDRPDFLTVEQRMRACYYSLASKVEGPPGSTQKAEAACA

[4] = target: Proto-oncogene tyrosine-protein kinase Src (Homo sapiens, UniProt P12931); experiment: Selectivity interaction (KinomeScan (DiscoverX)) EUB0001079a SRC; conditions: at 1 µM
Proto-oncogene tyrosine-protein kinase Src, sequence (P12931 2-536 limits assumed): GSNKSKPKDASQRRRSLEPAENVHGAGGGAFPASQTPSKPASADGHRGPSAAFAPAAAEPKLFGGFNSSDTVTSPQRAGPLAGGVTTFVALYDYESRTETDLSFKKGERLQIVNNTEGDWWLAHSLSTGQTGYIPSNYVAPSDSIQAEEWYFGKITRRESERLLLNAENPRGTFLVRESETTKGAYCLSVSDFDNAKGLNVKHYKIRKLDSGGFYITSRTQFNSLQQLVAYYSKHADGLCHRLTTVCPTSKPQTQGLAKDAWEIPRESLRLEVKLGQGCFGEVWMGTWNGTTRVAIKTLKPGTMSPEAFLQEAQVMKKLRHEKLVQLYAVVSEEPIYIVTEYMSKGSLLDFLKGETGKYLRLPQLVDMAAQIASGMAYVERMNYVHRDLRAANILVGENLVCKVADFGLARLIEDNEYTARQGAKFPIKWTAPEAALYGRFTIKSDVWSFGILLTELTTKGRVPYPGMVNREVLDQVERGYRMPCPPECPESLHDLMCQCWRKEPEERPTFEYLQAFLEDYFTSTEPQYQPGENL

[5] = target: Mitogen-activated protein kinase kinase kinase 9 (Homo sapiens) (UniProt P80192); experiment: Selectivity interaction (Kinase panel (KiNativ target engagement assay in Jurkat cells)) EUB0001635a MAP3K9; type: cell-based; conditions: Selectivity number of off-targets 0.0, Selectivity number of targets 233.0, Source Knowledge https://www.sciencedirect.com/science/article/pii/S2451945619300674?via%3Dihub, at 1 µM
Mitogen-activated protein kinase kinase kinase 9 (Homo sapiens), sequence (P80192 whole entry, looked up): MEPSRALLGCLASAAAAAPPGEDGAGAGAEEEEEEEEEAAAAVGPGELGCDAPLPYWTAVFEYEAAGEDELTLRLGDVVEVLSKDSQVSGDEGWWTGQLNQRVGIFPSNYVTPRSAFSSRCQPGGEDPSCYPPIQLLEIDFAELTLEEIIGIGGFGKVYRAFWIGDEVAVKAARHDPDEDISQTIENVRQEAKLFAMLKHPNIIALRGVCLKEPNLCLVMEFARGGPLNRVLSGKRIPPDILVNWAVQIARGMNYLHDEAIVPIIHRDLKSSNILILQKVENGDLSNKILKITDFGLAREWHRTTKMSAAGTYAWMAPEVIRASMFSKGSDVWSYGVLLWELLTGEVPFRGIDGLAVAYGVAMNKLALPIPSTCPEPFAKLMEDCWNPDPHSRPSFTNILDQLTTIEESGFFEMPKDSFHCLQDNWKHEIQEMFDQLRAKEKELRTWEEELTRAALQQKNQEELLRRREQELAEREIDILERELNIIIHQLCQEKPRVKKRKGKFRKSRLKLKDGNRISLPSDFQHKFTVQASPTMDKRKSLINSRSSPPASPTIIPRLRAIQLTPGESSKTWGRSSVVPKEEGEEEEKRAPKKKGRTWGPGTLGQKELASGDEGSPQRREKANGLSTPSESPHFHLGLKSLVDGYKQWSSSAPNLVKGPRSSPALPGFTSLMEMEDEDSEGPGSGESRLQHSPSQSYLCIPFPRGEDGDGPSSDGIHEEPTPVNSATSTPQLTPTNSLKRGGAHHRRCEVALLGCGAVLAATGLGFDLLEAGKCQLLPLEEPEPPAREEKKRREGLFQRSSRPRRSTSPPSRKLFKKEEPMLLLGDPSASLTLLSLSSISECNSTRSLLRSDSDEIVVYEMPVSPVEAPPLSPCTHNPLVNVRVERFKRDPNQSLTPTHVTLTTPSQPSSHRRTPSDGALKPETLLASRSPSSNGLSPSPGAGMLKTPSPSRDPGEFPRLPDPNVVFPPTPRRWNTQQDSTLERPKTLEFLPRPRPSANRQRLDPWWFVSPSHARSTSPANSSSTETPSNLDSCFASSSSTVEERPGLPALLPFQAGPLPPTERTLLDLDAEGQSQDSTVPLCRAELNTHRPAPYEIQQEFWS

[6] = target: Proto-oncogene tyrosine-protein kinase ROS (Homo sapiens) (UniProt P08922); conditions: at 10 µM
[7] = target: Cyclin-dependent kinase 1/cyclin B (Homo sapiens, UniProt P06493); experiment: Selectivity interaction (Kinase panel (Enzyme activity assay)) EUB0000612a CDK1; type: protein-complex assay
[8] = target: T2, Serine/threonine-protein kinase Nek9 (Homo sapiens) (UniProt Q8TD19); experiment: Selectivity interaction (ActivX KiNativ screen (kinase selectivity in THP-1 cell lysates)) EUB0000639a NEK9; type: subcellular; conditions: lysate, at 5 µM
T2 sequence (whole entry): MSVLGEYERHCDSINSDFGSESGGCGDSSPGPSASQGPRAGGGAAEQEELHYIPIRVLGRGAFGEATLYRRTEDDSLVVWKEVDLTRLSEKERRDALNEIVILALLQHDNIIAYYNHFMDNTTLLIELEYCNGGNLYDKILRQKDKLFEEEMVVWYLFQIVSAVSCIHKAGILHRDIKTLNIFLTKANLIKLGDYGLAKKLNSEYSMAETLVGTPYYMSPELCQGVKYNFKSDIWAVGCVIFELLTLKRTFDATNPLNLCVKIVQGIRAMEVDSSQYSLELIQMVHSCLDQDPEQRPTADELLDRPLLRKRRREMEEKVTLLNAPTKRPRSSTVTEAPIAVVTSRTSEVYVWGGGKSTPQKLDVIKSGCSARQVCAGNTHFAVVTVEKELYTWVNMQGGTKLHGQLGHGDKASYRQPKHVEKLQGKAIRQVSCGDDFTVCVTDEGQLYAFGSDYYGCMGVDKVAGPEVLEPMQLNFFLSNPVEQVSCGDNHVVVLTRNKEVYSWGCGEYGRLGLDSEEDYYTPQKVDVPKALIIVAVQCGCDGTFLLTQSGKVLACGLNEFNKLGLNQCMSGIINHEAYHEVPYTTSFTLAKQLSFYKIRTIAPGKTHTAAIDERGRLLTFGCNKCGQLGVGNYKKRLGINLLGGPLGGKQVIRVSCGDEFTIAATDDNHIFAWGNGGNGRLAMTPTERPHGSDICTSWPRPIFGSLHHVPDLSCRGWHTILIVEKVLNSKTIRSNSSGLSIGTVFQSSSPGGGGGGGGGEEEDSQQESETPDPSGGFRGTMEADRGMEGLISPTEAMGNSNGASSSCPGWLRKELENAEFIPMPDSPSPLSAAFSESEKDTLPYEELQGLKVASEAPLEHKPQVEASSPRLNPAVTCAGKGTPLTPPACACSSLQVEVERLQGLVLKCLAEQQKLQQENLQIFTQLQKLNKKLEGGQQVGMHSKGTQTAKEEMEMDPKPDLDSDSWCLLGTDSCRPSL

[9] = target: T3, Serine/threonine-protein kinase ICK (Homo sapiens) (UniProt Q9UPZ9); experiment: Selectivity interaction (KinomeScan (DiscoverX)) EUB0000607a ICK; conditions: at 10 µM
T3 sequence (whole entry): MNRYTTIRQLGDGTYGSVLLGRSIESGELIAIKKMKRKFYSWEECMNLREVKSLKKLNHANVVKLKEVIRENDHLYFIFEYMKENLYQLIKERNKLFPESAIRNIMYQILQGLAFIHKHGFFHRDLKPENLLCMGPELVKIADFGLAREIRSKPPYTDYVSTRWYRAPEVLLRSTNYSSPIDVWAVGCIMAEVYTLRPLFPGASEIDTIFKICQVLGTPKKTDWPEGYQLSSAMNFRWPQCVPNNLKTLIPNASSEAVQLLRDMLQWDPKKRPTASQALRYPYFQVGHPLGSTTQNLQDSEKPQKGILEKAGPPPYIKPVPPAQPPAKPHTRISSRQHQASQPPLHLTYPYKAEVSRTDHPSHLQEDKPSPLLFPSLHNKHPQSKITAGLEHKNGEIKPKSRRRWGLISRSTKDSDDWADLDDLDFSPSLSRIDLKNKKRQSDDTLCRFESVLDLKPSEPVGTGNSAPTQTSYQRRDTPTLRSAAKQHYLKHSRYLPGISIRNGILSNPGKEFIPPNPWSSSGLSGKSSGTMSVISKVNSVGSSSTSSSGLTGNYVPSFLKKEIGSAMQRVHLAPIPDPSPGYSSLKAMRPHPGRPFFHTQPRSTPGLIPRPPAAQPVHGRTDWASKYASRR

[10] = target: Rho-associated protein kinase 2 (Homo sapiens, UniProt O75116); experiment: Selectivity interaction (Enzymatic assay) EUB0001199aCl ROCK2
Rho-associated protein kinase 2, sequence (O75116 whole entry): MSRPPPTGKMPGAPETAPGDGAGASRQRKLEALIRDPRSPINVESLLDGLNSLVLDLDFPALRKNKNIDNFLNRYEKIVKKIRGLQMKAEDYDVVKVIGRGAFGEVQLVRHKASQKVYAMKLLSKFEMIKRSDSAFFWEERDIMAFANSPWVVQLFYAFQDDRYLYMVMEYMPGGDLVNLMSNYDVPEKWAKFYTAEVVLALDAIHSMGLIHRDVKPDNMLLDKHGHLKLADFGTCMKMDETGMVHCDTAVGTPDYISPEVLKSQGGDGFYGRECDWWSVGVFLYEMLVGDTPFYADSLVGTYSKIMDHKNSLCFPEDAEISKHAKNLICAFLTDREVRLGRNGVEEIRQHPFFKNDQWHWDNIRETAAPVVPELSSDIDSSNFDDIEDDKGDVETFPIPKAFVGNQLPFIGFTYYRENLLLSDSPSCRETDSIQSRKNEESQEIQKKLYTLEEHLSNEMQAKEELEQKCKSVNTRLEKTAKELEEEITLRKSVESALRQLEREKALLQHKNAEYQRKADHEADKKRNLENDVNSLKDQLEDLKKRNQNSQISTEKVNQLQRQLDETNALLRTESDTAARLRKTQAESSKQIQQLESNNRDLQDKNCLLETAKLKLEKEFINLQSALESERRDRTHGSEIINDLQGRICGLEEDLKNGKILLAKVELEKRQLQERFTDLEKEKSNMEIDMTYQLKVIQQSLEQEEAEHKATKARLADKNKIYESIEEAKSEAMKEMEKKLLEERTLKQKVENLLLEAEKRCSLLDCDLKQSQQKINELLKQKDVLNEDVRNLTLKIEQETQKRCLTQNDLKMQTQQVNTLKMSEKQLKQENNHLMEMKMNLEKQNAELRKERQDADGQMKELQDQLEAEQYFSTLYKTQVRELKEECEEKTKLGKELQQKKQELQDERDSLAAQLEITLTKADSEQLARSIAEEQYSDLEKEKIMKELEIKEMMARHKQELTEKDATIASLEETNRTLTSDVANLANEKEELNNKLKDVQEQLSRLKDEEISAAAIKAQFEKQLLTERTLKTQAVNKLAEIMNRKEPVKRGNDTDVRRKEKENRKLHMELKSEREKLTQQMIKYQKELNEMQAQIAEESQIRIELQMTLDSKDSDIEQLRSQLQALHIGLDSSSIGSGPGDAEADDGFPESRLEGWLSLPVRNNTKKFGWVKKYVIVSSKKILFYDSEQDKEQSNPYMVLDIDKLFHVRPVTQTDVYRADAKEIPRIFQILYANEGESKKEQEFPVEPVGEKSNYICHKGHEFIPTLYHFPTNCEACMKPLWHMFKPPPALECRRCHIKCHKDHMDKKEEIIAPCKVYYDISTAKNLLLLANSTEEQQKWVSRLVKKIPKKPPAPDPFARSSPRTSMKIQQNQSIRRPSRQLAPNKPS

[11] = target: Mitogen-activated protein kinase 9 (Homo sapiens, UniProt P45984); experiment: Selectivity interaction (KinomeScan (DiscoverX)) EUB0001619a MAPK9; conditions: at 1 µM
Mitogen-activated protein kinase 9, sequence (P45984 whole entry, looked up): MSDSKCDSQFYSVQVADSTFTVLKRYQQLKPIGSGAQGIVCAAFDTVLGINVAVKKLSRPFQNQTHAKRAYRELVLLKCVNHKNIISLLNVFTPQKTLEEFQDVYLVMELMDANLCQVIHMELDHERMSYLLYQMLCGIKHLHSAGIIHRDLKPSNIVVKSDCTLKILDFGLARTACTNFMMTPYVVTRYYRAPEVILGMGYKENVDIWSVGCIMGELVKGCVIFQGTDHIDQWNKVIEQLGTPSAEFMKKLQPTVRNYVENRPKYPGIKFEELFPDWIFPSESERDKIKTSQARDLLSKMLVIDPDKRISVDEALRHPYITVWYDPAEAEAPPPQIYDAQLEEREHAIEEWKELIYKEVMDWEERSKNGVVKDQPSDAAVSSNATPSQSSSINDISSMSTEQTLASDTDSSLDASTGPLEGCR

Serine/threonine-protein kinase RIO2 (Homo sapiens), sequence (Q9BVS4 whole entry, looked up): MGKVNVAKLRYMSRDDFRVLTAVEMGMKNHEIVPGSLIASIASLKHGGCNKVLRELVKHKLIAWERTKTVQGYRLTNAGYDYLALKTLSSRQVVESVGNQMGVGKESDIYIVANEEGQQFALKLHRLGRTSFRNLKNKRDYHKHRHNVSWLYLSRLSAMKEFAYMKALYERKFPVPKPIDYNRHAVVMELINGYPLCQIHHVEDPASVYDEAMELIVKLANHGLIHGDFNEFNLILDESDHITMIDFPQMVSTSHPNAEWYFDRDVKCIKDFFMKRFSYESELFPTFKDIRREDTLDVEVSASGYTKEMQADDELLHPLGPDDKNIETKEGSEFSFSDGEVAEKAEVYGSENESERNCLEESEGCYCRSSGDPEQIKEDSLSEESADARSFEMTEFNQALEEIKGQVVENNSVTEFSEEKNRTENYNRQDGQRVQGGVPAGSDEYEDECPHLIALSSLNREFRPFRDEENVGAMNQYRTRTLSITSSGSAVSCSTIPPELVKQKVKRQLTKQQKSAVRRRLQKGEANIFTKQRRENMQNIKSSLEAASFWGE
Tyrosine-protein kinase receptor UFO (Homo sapiens), sequence (P30530 whole entry): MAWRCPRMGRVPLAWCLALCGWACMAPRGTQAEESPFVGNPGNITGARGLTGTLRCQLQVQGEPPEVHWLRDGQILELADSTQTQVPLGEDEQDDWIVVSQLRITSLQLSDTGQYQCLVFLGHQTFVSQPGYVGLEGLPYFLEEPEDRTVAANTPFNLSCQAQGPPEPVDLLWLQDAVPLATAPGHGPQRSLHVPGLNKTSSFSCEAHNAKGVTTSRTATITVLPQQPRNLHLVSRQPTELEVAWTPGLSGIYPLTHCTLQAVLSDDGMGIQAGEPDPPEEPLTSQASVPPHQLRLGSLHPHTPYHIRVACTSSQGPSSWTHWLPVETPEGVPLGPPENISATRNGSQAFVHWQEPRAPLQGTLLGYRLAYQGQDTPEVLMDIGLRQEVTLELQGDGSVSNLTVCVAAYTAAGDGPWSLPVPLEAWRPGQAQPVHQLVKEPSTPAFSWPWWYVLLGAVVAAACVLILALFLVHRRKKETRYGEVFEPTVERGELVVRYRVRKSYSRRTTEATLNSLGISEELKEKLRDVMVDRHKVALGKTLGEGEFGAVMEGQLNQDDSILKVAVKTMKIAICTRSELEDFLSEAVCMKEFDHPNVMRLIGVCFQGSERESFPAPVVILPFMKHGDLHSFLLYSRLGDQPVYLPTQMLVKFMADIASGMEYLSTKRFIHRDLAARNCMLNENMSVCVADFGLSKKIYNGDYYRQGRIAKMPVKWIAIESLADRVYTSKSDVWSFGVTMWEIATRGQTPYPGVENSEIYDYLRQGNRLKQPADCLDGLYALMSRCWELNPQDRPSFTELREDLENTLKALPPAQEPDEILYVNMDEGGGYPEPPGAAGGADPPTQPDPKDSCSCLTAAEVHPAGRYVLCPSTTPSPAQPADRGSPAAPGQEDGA

CCN(CC)CCCCNc1ncc2cc(-c3cc(OC)cc(OC)c3)c(NC(=O)NC(C)(C)C)nc2n1
% of control [1]: 100%

CN(C)CC#Cc1ccc2[nH]c3c(c2c1)-c1nc(N)ncc1CCC3
% of control [2]: 32%

Cc1ccc(-c2ccc3c(ccc4sc5c(c43)NC[C@@H](C)NC5=O)n2)cn1
% of inhibition [3]: -8%

Nc1cnc(N2CCc3cc(S(=O)(=O)Nc4c(F)cc(Cl)cc4F)cc(N4CCCC4=O)c32)nc1 [TP-020n]
% of control [4]: 99%

C=CC(=O)Nc1ccc(C(=O)Nc2[nH]nc3c2CN(C(=O)N[C@H](CN(C)C)c2ccccc2)C3(C)C)cc1
% of engagement [5]: 0.3%

Cc1cc([C@@H](C)Nc2ccccc2C(=O)O)c2nc(N3CCOCC3)cc(=O)n2c1 [AZD-6482]
% of control [6]: 100%

CCc1cccc(CC)c1NC(=O)c1nn(C)c2c1CCc1cnc(Nc3ccc(C(=O)NC4CCN(C)CC4)cc3OC(F)(F)F)nc1-2
IC50 [7]: > 10 µM

CC[C@@H]1[C@H](F)C(=O)N[C@@H]1COc1nccc2cc(C(N)=O)c(OC)cc12 [ZIMLOVISERTIB]
% of inhibition [8]: 8.8%

CNC(=O)Nc1ccc(-c2nc(N3CC4CCC(C3)O4)c3cnn(C4CCC5(CC4)OCCO5)c3n2)cc1
% of control [9]: 87%

CN1Cc2nccc(-c3cn(C)nc3-c3ccc(F)cc3)c2C1=O
IC50 [10]: 10.2 µM

N#Cc1cccc(-c2c[nH]c3ncnc(N4CCOCC4)c23)c1
% of control [11]: 87%
